Here are results for three compounds from paper PMC9083330, “An Efficient Evaluation System Accelerates α-Helical Antimicrobial Peptide Discovery and Its Application to Global Human Genome Mining” (Frontiers in Microbiology, 2022).

As usually defined, the MIC is the smallest concentration in the dilution series that meets the test's criterion for growth inhibition.

Values after ≈ are worked out from the molar mass of the structure shown.

Assay [1] concerns Klebsiella pneumoniae (CMCC46117). As to the kind of experiment: MIC, broth microdilution. To be noted: CMCC46117, read-out: MIC, 6. K. pneumoniae (CMCC46117).
Assay [2] deals with Staphylococcus aureus (CMCC26003). As to the kind of experiment: MIC, broth microdilution. To be noted: CMCC26003, read-out: MIC, 1. S. aureus (CMCC26003).
Assay [3] deals with Shigella dysenteriae (CMCC(B)51105). As to the kind of experiment: MIC, broth microdilution. It counts as cell-based. The settings on record: read-out: MIC, 9. S. dysenteriae (CMCC(B)51105).
In assay [4] the test system is mouse skin wound infected with drug-resistant E. coli (SYPB-3820). Description: Mouse full-thickness skin wound infection and healing. It counts as in vivo, BALB/c mice. How it is done:
(§1) Briefly, adult female BALB/c mice (18–22 g) were obtained from the Laboratory Animal Center of Shenyang Pharmaceutical University and performed in compliance with the guidelines of the Institutional Animal Care and Use Committee of Shenyang Pharmaceutical University. Each mouse was operated on an 8-mm in diameter round-shape wound under surgery conditions with an intraperitoneal injection of ketamine (90 mg/kg) and xylazine (10 mg/kg). The mice were randomly divided into 10 groups, including one normal group, three model groups, three treatment groups, and three positive groups (n = 10 in each group), then the wounds were infected with 40 μl (1 × 10^8 CFU/mL) of E. coli (CMCC44103) or drug-resistant E. coli (SYPB-3820) or S. aureus (CMCC26003), respectively, except for the normal group. Forty-eight hours later, the wounds of three model groups were treated with a sterile 0.85% saline solution. […] All the wounds were treated twice 1 day and observed every 24 h for 14 days. On days 1, 3, 5, 7, and 10, 100 mg of treated skin tissue was removed and homogenized in 0.9 ml of sterile 0.85% saline solution, then the samples were diluted and plated onto Luria-Bertani (LB) medium. After incubation at 37°C for 20 h, the CFUs were counted to represent the bacterial number in the wounds.

Assay [5] has as its system mouse skin wound infected with E. coli (CMCC44103). Described as above. It counts as in vivo, BALB/c mice. On the procedure: as §1
Assay [6] concerns mouse skin wound infected with S. aureus (CMCC26003). Described as above. It counts as in vivo, BALB/c mice. On the procedure:
as §1

The subject of assay [7] is Escherichia coli (SYPB-3820) (multiple-resistant strain). Description: MIC, broth microdilution. The settings on record: read-out: MIC, 7. E. coli (SYPB-3820) (multiple-resistant strain). (Broth dilution looks for growth in wells or tubes with falling amounts of substance.)
Assay [8] deals with Escherichia coli (CMCC44103). As to the kind of experiment: MIC, broth microdilution. To be noted: CMCC44103, read-out: MIC, 5. E. coli (CMCC44103).
Assay [9] concerns Acinetobacter baumannii (ACCC11038). Description: MIC, broth microdilution. To be noted: read-out: MIC, 8. A. baumannii (ACCC11038).
The subject of assay [10] is genomic DNA of E. coli (SYPB-3820). Description: Peptide and DNA binding assay (gel retardation). Set-up: species or system Escherichia coli. To be noted: 0.5–8 × MIC (1–16 μg/ml), 37°C, 30 min, approx. 400 ng DNA. On the procedure: (§2) The gel retardation experiment was conducted according to the method described by [Kim et al. (2018)] for exploring the influence of AMPs on the bacterial genome. The bacterial genomic DNAs were extracted by using a Vazyme FastPure® Bacteria DNA Isolation Mini Kit (Nanjing Vazyme Biotech Co., Ltd., Nanjing, China). […] DNA treated with Penetratin (reported as cell-penetrating peptide) ([de Mello et al., 2019]) and DNA untreated with AMP were served as positive and negative control, respectively. The extent of DNA migration was measured by agarose gel electrophoresis using a gel imaging system (Beijing Sage Creation Science, Beijing, China).

The test system of assay [11] is genomic DNA of E. coli (CMCC44103). Description: Peptide and DNA binding assay (gel retardation). Details: species or system Escherichia coli. To be noted: 0.5–8 × MIC (1–16 μg/ml), 37°C, 30 min, approx. 400 ng DNA. On the procedure:
as §2

In assay [12] the test system is genomic DNA of S. aureus (CMCC26003). Description: Peptide and DNA binding assay (gel retardation). Set-up: species or system Staphylococcus aureus. To be noted: 0.5–8 × MIC (1–16 μg/ml), 37°C, 30 min, approx. 400 ng DNA. On the procedure:
as §2

Assay [13] relates to multiple-resistant Staphylococcus aureus (MRSA186). Description: MIC, broth microdilution. The settings on record: read-out: MIC, 2. multiple-resistant S. aureus (MRSA186).

Turning to `C[C@H]1COc2c(N3CCN(C)CC3)c(F)cc3c(=O)c(C(=O)O)cn1c23` [Levofloxacin], the MIC was 0.03 µg/mL (≈ 0.083 µM) in assay [1]; 0.12 µg/mL (≈ 0.332 µM) in assay [2]; 0.06 µg/mL (≈ 0.166 µM) in [3]; 8 µg/mL (≈ 22.1 µM) in assay [7]; 0.03 µg/mL (≈ 0.083 µM) in [8]; 0.06 µg/mL (≈ 0.166 µM) in assay [9]. The “Skin wound bacterial burden” value in assay [4] (10 days later, E. coli (SYPB-3820) infected wound, topical 100 μl at 8 × MIC twice a day, mean ± SD) is “(2.29 ± 3.78) × 10^4 CFU/g”; in [5] (day 10, E. coli (CMCC44103) infected wound, topical 100 μl at 8 × MIC twice a day, mean ± SD), “(3.91 ± 2.87) × 10^3 CFU/g”; in [6] (day 10, S. aureus (CMCC26003) infected wound, topical 100 μl at 8 × MIC twice a day, mean ± SD), “(5.37 ± 2.89) × 10^3 CFU/g”. Moreover, the “Reduction of bacterial counts” value in assay [4] (day 10 vs initial burden, E. coli (SYPB-3820)) is reported as “five”. In addition, the “Wound healing (observation)” value in assay [4] (day 14, E. coli (SYPB-3820) infected wound) is listed as “basically completely healed”; in assay [5] (day 14, E. coli (CMCC44103) infected wound) it was “basically completely healed”; in assay [6] (day 14, S. aureus (CMCC26003) infected wound), “basically completely healed”. For the same compound, the “Decrease of bacterial load” value in assay [5] (day 10 vs initial burden, E. coli (CMCC44103)) is on record as “six”. The “Reduction of bacterial burden” value in assay [6] (day 10 vs initial burden, S. aureus (CMCC26003)) was “seven”.
Penetratin: the “Binding to genomic DNA (gel retardation)” value in assay [10] is “bound with the bacterial genomic DNA and blocked the migration”; in [11], “bound with the bacterial genomic DNA and blocked the migration”; in [12] it was “bound with the bacterial genomic DNA and blocked the migration”.
Take `CN[C@H](CC(C)C)C(=O)N[C@H]1C(=O)N[C@@H](CC(N)=O)C(=O)N[C@H]2C(=O)N[C@H]3C(=O)N[C@H](C(=O)N[C@H](C(=O)O)c4cc(O)cc(O)c4-c4cc3ccc4O)[C@H](O)c3ccc(c(Cl)c3)Oc3cc2cc(c3O[C@@H]2O[C@H](CO)[C@@H](O)[C@H](O)[C@H]2O[C@H]2C[C@](C)(N)[C@H](O)[C@H](C)O2)Oc2ccc(cc2Cl)[C@H]1O` [Vancomycin]: the MIC in [13] is 1 µg/mL (≈ 0.69 µM).
